# Experimental data taken from patent US20040121357A1, “Artificial endonuclease” (priority 2004, published 2004).
# “Also recorded” adds a separate entry of the source. Where no end group is shown, it is not given here.
# B1: P3 (peptide)
# peptide: TERRRQQLDKDGDGTIDEREIKIHFQNKRAKIK
# modifications: also: Eu(III) complex, Eu(III) organizes two peptides into back-to-back dimer
# notes: In the dimerization experiments it stood with Eu(III) (EuCl3); The entry describes the monomer; also called EuP3; peptide P3
# B2: P4a (peptide)
# peptide: TERRRFDKDGNGYISAAELRHVKIWFQNKRAKIK
# modifications: also: Eu(III) complex, dimer EuP4a2
# notes: The entry describes the monomer; also called EuP4a; EuP4a2 (dimer)
# Key:
# [1] = system: ^32P-labeled fragment of pBR322; test: Cleavage of 32P-labeled DNA fragment, acrylamide gel electrophoresis; type: biochemical; conditions: 40 μM Ce^4+, 37° C. overnight
# Protocol: FIG. 10. Sequence specificity of artificial endonucleases. […] Controls (water) were conducted to measure background cleavage. […] Minor products run with Maxam-Gilbert lanes.
# Sequence Selective DNA Cleavage. […] This cleavage is not dependent on the strain inherent in supercoiled plasmid, as cleavage of linearized ^32P-labeled DNA oligonucleotides was observed as well. Labeled fragments were incubated with Ce(NH3)6(NO3)4 and varying concentrations of peptides P3 or P3W at 37° C. overnight and analyzed by acrylamide gel electrophoresis (FIG. 10). Cleavage was concentration dependent, and distinct between metallopeptides.
# [2] = Hydrolysis of bis-nitrophenylphosphate (BNPP) followed spectrophotometrically at 400 nm; type: biochemical; conditions: for Rates (K(obs)) of BNPP cleavage: 500 μM BNPP, 37° C.
# From the text: To test hydrolytic activity, the hydrolysis of binitrophenylphosphate (BNPP) is followed. The absorbance increase at 400 nm is due to liberated 4-nitrophenolate which can be monitored over time to give rate constants. The rate reflects the relative accessibility and reactivity of the active site, and can be compared to the rates observed for the hydrolytically active peptide or polypeptide.
# Hydrolytic Phosphate Cleavage. Because the EF-Hand is physiologically strictly a structural motif, an isolated Ca-binding loop's ability to affect hydrolytic cleavage was addressed. The hydrolysis of bis-nitrophenylphosphate (BNPP) was followed spectrophotometrically under turnover conditions. The absorbance increase at 400 nm due to liberated 4-nitrophenolate was observed over the initial 10-14 hours of the reaction (<10% BNPP converted). […] Plots of absorbance vs. time were converted to concentration units (ε=18,500 M^−1 cm^−1) to give first order rate constants (Sardesai et al., 1994).
# [3] = system: supercoiled plasmid DNA (pBR322); test: DNA gel shift assay (agarose gel electrophoresis); type: binding; conditions: for Gel shift / affinity for supercoiled plasmid DNA (in words): 5-25 μM ligand, 15 minutes, room temperature
# Protocol: DNA Gel Shift Assays. The affinity of EuP3, EuP2, and each free peptide for supercoiled plasmid DNA was examined by agarose gel electrophoresis. Plasmid (pBR322, New England Biolabs, Inc.) was incubated for 15 minutes at room temperature with increasing concentrations of each ligand (5-25 μM), prior to the addition of loading dye. Each lane contained 1 μg plasmid (50 μM base pairs) in 10 mM Tris buffer at pH 8.0. […] The interaction of ligand with supercoiled plasmid (type I) can be observed if run under conditions where the DNA-ligand interactions are not disturbed during electrophoresis. Supercoiled pBR322 was chosen as a standard plasmid, and was incubated for 15 minutes with EuCl3, EuP3, EuP2, or free peptide prior to electrophoresis. This small, 4,361 bp plasmid contains three [NT] sequences, and eight […] sequences, partial target sequences for engrailed homeodomain. In the absence of 0.1 M EDTA (normally added prior to electrophoresis to quench hydrolytic cleavage assays) and with short incubation times to minimize metal-catalyzed cleavage, a gel shift can be observed. […] From quantified concentration-dependent gel shift data, an estimate of the binding affinity of EuP3 can be made. Gels with increasing Eu-peptide concentrations (5 to 25 μM in each set) were quantified (ImageQuant; Molecular Simulations), and average band volumes were plotted versus concentration. […] Each graphed point represents data averaged from three gel experiments.
# [4] = Circular dichroism titration of peptides with Eu(III) (incl. TFE helix induction); conditions: initial portion of the curve (0-50 μM Eu(III)); read-out: Metal binding affinity (K1, Kd) estimated from CD titration
# supercoiled plasmid DNA = test: Cleavage of supercoiled plasmid DNA, agarose gel electrophoresis; type: biochemical; conditions: for Dependence of cleavage activity on concentration (in words): increasing metallopeptide concentration
# Protocol: FIG. 8. […] Samples containing 1 μg plasmid (about 60 μM b.p.) in 10 mM Tris buffer, pH=7.0, were incubated for 48 hours at 37° C. Reactions were quenched by the addition of 0.5 M EDTA to a final concentration of 10 mM, followed by addition of 100 mM KCl. The reaction mixtures were then treated with Amberlyst cation exchange resin prior to electrophoresis. Lane 1: pUC19 DNA control; lanes 2-5: DNA plus increasing concentrations of EuC13 (20, 30, 50 and 100 μM); lanes 6-9: DNA plus increasing concentrations of free P3 (20, 30, 50 and 100 μM); lanes 10-15: DNA plus increasing concentrations of 1:1 Eu:P3 (10, 20, 30, 40, 50 and 100 μM).
# The conversion of supercoiled plasmid (type I) to open circular (type II), linear (type III), or smaller fragments was monitored by agarose gel electrophoresis. Because the synthetic peptides bind strongly to DNA, thus preventing the observation of products, the peptides were chelated prior to electrophoresis (Falke et al., 1994). At the point each reaction was quenched (0.1 M EDTA), a suspension of neutral, washed, cation resin (Amberlyst, 10-20 μL) was incubated with each sample for 30 minutes, spun down, and the supernatent loaded into wells. After 24 hours of reaction (incubated at 37° C.), the concentration-dependent formation of open circular plasmid was observed (FIG. 8). […] Over a 10-300 μM EuP3 gradient, nicking occurred from 10-150 μM, with the greatest amount of cleavage at 30 μM EuP3.
# [5] = target: the molecule itself; test: dimerization constant (self-association) from CD titration of P3 with Eu(III), helicity at 222 nm
# Protocol: Circular Dichroism Titrations. The titration of P2 and P3 peptides with Eu(III) and Ca(II) was followed by circular dichroism spectroscopy on an Aviv 60DS spectrophotometer at 25° C. Samples (50 μM peptide) were scanned from 260 to 200 nm (0.1 mm pathlength cell, 1.0 nm bandwidth, 0.5 nm resolution), in 10 mM Tris(hydroxymethyl)aminomethane buffer (Tris; pH=7.8). Eu(III) and Ca(II) were added as the chlorides. Aliquots of 10 mM stock metal solutions were added to a maximum of 10 equivalents.
# The secondary structure of P3 as a function of metal was followed by CD, calculating the % α-helicity from the molar ellipticity at 222 nm (100% helical=−31,500 deg cm² dmol⁻¹). With the addition of Eu(III) to P3, the helicity increases from 9 to 25%, showing enhanced structure correlated to metal-coordination. This increase in structure with added metal describes a curve which has an inflection point at approximately 1:1 Eu:P3, then continues to a 25% helical metal-saturated form. […] A second structural change, correlating to the discrete back-to-back dimerization which has been well characterized for similar EF-Hand peptides systems occurs at Kdim about 80 μM (Shaw et al., 1991; Wójcik et al., 1997; Clarke et al., 1993; Shaw et al., 1990; Maurer et al., 1995). […]
# [6] = target: the molecule itself; test: dimerization constant of Eu(III)-bound P3 (self-association); isothermal titration microcalorimetry
# [7] = target: the molecule itself; test: dimerization constant of Eu(III)-bound P4a (self-association); called 'measured', method not stated
# [8] = 10 μM Eu/10 μM peptide, pH 7.7, 10 mM Tris
# [9] = 25 μM Eu/25 μM peptide, pH 7.7, 10 mM Tris
# [10] = 25 μM Eu/50 μM peptide, pH 7.7, 10 mM Tris
# [11] = 10-300 μM EuP3 gradient, 37° C.
molecule,measurement,setting,value
"O=[N+]([O-])[O-].O=[N+]([O-])[O-].O=[N+]([O-])[O-].O=[N+]([O-])[O-].O=[N+]([O-])[O-].O=[N+]([O-])[O-].[Ce+4].[NH4+].[NH4+] [Ce^4+, (NH4)2 Ce(NO3)6]",Regioselectivity of cleavage: termini produced,[1],both 3′ and 5′ termini
"[Cl][Eu]([Cl])[Cl] [EuCl3, reference compound]",Rates (K(obs)) of BNPP cleavage,"[2]; 10 μM Eu/0 μM peptide, pH 7.7, 5 mM Tris",5.2 ± 0.6 s^−1 × 10^7
same,Rates (K(obs)) of BNPP cleavage,"[2]; 10 μM Eu/0 μM peptide, pH 7.7, 10 mM Tris",1.4 s^−1 × 10^7
same,Rates (K(obs)) of BNPP cleavage,"[2]; 12 μM Eu/0 μM peptide, pH 7.7, 5 mM Tris",5.7 ± 0.3 s^−1 × 10^7
same,Rates (K(obs)) of BNPP cleavage,"[2]; 15 μM Eu/0 μM peptide, pH 7.7, 10 mM Tris",2.0 s^−1 × 10^7
same,Rates (K(obs)) of BNPP cleavage,"[2]; 20 μM Eu/0 μM peptide, pH 7.7, 5 mM Tris",19 ± 3 s^−1 × 10^7
same,Rates (K(obs)) of BNPP cleavage,"[2]; 20 μM Eu/0 μM peptide, pH 7.7, 10 mM Tris",2.7 s^−1 × 10^7
same,Gel shift / affinity for supercoiled plasmid DNA (in words),[3],not
EuP3: Eu(III)-bound peptide P3 (1:1 Eu-peptide) (TERRRQQLDKDGDGTIDEREIKIHFQNKRAKIK),BNPP catalysis compared with free Eu(III) (in words),[2],may not be as fast as free Eu(III) catalysis
same,Rates (K(obs)) of BNPP cleavage,[2]; [8],6.0 s^−1 × 10^7
same,Rates (K(obs)) of BNPP cleavage,[2]; [9],7.3 s^−1 × 10^7
same,Rates (K(obs)) of BNPP cleavage,[2]; [10],20.6 s^−1 × 10^7
same,Rates (K(obs)) of BNPP cleavage,"[2]; 50 μM Eu/50 μM peptide, pH 7.7, 5 mM Tris",17.5 ± 4 s^−1 × 10^7
same,Rates (K(obs)) of BNPP cleavage,"[2]; 50 μM Eu/100 μM peptide, pH 7.7, 5 mM Tris",11.5 ± 4 s^−1 × 10^7
same,Kd,[4],≤ 20 µM
same,Concentration causing a gel shift of supercoiled plasmid DNA,[3]; 50 μM base pairs,≥ 10 µM
same,Gel shift / affinity for supercoiled plasmid DNA (in words),[3],significant affinity for supercoiled plasmid DNA; also recorded: gel shift and disappearance of type I plasmid occurs; also recorded: DNA-binding affinity in the micromolar regime; also recorded: disappearance of type I band
same,Estimate of DNA binding affinity from quantified gel shift data,"[3]; disappearance of type I band, 5 to 25 μM, average of three gels",~20 µM
same,Concentration range in which nicking occurred,supercoiled plasmid DNA; [11],10 to 150 µM
same,Concentration with the greatest amount of cleavage,supercoiled plasmid DNA; [11],30 µM
same,Cleavage of supercoiled plasmid DNA (in words),"supercoiled plasmid DNA; 37° C., pUC19 for EuP3, Eu(III) and Ce(IV) complexes for P3W","catalyzes the cleavage of supercoiled, double-stranded DNA; also recorded: cleavage of pUC19 plasmid DNA"
same,Dependence of cleavage activity on concentration (in words),supercoiled plasmid DNA,falls off with increasing concentration
EuP4a: Eu(III)-bound peptide P4a (TERRRFDKDGNGYISAAELRHVKIWFQNKRAKIK),Rates (K(obs)) of BNPP cleavage,[2]; [8],11.3 s^−1 × 10^7
same,Rates (K(obs)) of BNPP cleavage,[2]; [9],56.3 s^−1 × 10^7
same,Rates (K(obs)) of BNPP cleavage,[2]; [10],62.0 s^−1 × 10^7
same,Rates (K(obs)) of BNPP cleavage,"[2]; 50 μM Eu/50 μM peptide, pH 7.7, 10 mM Tris",149.5 s^−1 × 10^7
same,Rates (K(obs)) of BNPP cleavage,"[2]; 50 μM Eu/100 μM peptide, pH 7.7, 10 mM Tris",212.0 s^−1 × 10^7
same,Dependence of cleavage activity on concentration (in words),supercoiled plasmid DNA,does not
B1,Kd,[5],~80 µM
same,Kd,[6],≥ 80 µM
B2,Kd,[7],≥ 300 µM
